{
  "source": "patent US20240409538A1",
  "about": "“SUBSTITUTED TRIAZOLOHETEROARYL COMPOUNDS AS USP1 INHIBITORS AND THE USE THEREOF” (IMPACT THERAPEUTICS (SHANGHAI), INC., priority 2021, published 2024)",
  "data": [
    {"system": "BRCA mutant human breast cancer MDA-MB-436 cell line", "test": "Growth inhibition of MDA-MB-436 cells, CCK-8 method", "format": "cell-based", "details": "MDA-MB-436, 168 h, 7 days incubation, read-out: IC50 (nM), inhibition of proliferation of MDA-MB-436 cells, CCK-8 method", "method": "The cells were cultured in complete medium (DMEM medium+10% FBS+Insulin+glutathione). When the confluence reached about 80%, cells were digested and gently dispensed from the bottom of the dish with a 1 mL pipette. Cell suspension was collected and centrifuged at 500 rpm for 3 min. The supernatant was discarded, and the cell pellet were re-suspended in complete medium. The cells were seeded into a culture dish at an appropriate proportion, and then cultured in a 5% CO2 incubator at 37° C. The assay was carried out when the cells were in optimum condition and the confluence was reached 80%. Cells in the logarithmic growth phase were taken to centrifugate, and the culture supernatant was removed. The cells were resuspended in refresh complete medium and counted. The resuspended cells were seeded at 3000/well in a 96-well plate and incubated at 37° C., 5% CO2 incubator overnight. The compound was prepared as below: 1000× dilution tested compound solution to 40× test compound solution by adding 5 μL 1000× compound solution to 120 μL Medium (25-fold dilution). The solution was mixed by oscillation, 0.1% DMSO was used as the control.\nThe next day, the 96-well plate inoculated with cells was taken out from the incubator, and the culture supernatant was removed. Then fresh medium of 195 uL/well and 5 μL/well of 40× test compound solution as mentioned above were added into the 96 well plate, respectively. Finally, the plate was incubated for 7 days in a 37° C. 5% CO2 incubator. The medium containing compound was changed on the fourth day.\nCCK Method: After 7 days, 20 μL of CCK-8 was added to each well and shaken gently, then was cultured for 4 hours. The plate was shaken for 5 min after incubation, the absorbance values of 450 nm or 650 nm wavelengths were recorded respectively (OD=absorbance value of 450 nm−absorbance value of 650 nm) by using the multifunction readout instrument.\nData were analyzed by software GraphPad Prism 6.0. The inhibitory activity of compounds on cell proliferation was plotted using cell survival rate against the compound concentration as coordinates. Cell survival rate %=(ODcompound−ODbackground)/(ODDMSO−ODbackground)×100. The IC50 value was fitted by the s-shaped dose response curve equation: Y=100/(1+10^(log C−log IC50)), and C was the compound concentration.\nTable 3 summarizes the inhibitory effect data (IC50) of the compounds on the proliferation of human breast cancer cells MDA-MB-436 determined by CCK-8 method.", "units": {"IC50": "nM"}, "values": [
      {"smiles": "CC(C)c1ccccc1-c1nc2cccc(Cc3ccc(-c4nc(C(F)(F)F)cn4C)cc3)n2n1", "note": "[Example 10, 2-(2-isopropylphenyl)-5-(4-(1-methyl-4-(trifluoromethyl)-1H-imidazol-2-yl)benzyl)-[1,2,4]triazolo[1,5-a]pyridine]", "IC50": 226},
      {"smiles": "CC(C)c1ccccc1-c1nc2c(Cc3ccc(-c4nc(C(F)(F)F)cn4C)cc3)ccnn2n1", "note": "[Example 9, 2-(2-isopropylphenyl)-8-(4-(1-methyl-4-(trifluoromethyl)-1H-imidazol-2-yl)benzyl)-[1,2,4]triazolo[1,5-b]pyridazine]", "IC50": 1170},
      {"smiles": "Cc1cnn(C(C)C)c1-c1nc2c(Cc3ccc(-c4nc(C(F)(F)F)cn4C)cc3)ccnn2n1", "note": "[Example 17, 2-(1-isopropyl-4-methyl-1H-pyrazol-5-yl)-8-(4-(1-methyl-4-(trifluoromethyl)-1H-imidazol-2-yl)benzyl)-[1,2,4]triazolo[1,5-b]pyridazine]", "IC50": 39.5}
    ]},
    {"target": "USP1/UAF1 (Homo sapiens (Human), UniProt O94782)", "sequence (O94782 whole entry)": "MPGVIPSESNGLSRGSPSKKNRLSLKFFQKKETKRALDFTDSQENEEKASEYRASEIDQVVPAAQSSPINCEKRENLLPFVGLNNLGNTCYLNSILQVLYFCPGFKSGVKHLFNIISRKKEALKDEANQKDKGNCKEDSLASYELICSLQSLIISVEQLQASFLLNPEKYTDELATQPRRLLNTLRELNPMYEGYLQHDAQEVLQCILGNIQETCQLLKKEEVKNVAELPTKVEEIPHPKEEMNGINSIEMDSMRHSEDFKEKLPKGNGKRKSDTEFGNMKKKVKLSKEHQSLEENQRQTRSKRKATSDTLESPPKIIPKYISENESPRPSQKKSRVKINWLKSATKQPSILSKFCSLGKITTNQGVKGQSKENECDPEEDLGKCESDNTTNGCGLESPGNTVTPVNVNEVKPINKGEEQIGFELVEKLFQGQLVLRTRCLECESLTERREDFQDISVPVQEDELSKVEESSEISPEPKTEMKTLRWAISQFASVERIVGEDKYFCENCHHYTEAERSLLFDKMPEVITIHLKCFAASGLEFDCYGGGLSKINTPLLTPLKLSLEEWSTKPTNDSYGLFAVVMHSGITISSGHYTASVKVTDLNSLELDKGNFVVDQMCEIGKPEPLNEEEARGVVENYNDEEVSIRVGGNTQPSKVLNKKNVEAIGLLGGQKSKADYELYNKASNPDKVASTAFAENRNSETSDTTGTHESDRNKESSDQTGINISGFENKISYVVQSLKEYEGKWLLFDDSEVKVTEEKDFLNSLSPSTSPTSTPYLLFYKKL", "sequence (Q8TAF3 whole entry partner)": "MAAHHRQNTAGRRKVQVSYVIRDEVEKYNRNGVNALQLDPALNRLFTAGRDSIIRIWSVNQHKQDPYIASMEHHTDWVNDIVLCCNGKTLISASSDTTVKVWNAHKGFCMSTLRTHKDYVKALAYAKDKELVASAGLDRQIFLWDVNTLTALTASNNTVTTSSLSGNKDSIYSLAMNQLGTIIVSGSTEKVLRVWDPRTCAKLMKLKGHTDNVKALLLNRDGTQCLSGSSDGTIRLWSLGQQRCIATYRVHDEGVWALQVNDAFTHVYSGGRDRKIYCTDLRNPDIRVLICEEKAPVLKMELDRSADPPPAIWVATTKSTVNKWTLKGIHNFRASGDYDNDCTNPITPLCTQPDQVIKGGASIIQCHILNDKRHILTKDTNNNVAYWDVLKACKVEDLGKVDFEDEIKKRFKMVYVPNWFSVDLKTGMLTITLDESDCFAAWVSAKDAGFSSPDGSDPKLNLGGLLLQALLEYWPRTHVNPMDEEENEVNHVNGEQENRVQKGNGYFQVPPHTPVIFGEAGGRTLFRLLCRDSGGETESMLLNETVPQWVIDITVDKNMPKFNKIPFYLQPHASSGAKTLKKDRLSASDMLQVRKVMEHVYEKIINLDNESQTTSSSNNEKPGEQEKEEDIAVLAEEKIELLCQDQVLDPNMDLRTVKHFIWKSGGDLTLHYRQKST", "test": "USP1/UAF1 activity, ubiquitin-rhodamine110-glycine (Ub-Rho) assay", "format": "biochemical", "details": "0.1 nM USP1/UAF1, 100 nM Ub-Rho, 120 minutes; read-out: IC50 (nM), inhibitory effects on USP1/UAF1 activity", "method": "USP1/UAF1 activity was determined by using ubiquitin-rhodamine110-glycine (Ub-Rho; Boston Biochem) assay. Enzymatic reactions were conducted in an assay buffer (50 mM Tris-HCl, pH 7.8, 0.5 mM EDTA, 100 mM NaCl, 1 mM DTT, 0.01 BSA, and 0.01% Tween-20) that contained 0.1 nM USP1/UAF1. Each individual compound was tested at ten concentrations in the range of 0.0005 to 10 μM. The plates were incubated for 15 min to attain equilibrium, and then the enzymatic reaction was initiated by dispensing 10 μL of Ub-Rho solution (100 nM final concentration). After treating 120 minutes with Ub-Rho solution, the rhodamine fluorescence was acquired using a 480 nm excitation/540 nm emission filter set by using Envision instrument. The inhibition rate of the compound to USP1/UAF1 enzyme activity was calculated according to the following formula.\nIC50 value is obtained by fitting the s-shaped dose response curve equation by using XL Fit software. The curve equation is Y=100/(1+10^(log C−log IC50)). C is the compound concentration.", "units": {"IC50": "nM"}, "values": [
      {"smiles": "COc1ncnc(C2CC2)c1-c1nc2ccnc(Cc3ccc(-c4nc(C(F)(F)F)cn4C)cc3)n2n1", "note": "[Example 21, 2-(4-cyclopropyl-6-methoxypyrimidin-5-yl)-5-(4-(1-methyl-4-(trifluoromethyl)-1H-imidazol-2-yl)benzyl)-[1,2,4]triazolo[1,5-c]pyrimidine]", "IC50": 16.1},
      {"smiles": "COc1ncnc(C2CC2)c1-c1nc2cccc(Cc3ccc(-c4nc(C(F)(F)F)cn4C)c(F)c3)n2n1", "note": "[Example 38, 2-(4-cyclopropyl-6-methoxypyrimidin-5-yl)-5-(3-fluoro-4-(1-methyl-4-(trifluoromethyl)-1H-imidazol-2-yl)benzyl)-[1,2,4]triazolo[1,5-a]pyridine]", "IC50": 5.44},
      {"smiles": "COc1ncnc(C2CC2)c1-c1nc2cncc(Cc3ccc(-c4nc(C(F)(F)F)cn4C)c(F)c3)n2n1", "note": "[Example 44, 2-(4-cyclopropyl-6-methoxypyrimidin-5-yl)-5-(3-fluoro-4-(1-methyl-4-(trifluoromethyl)-1H-imidazol-2-yl)benzyl)-[1,2,4]triazolo[1,5-a]pyrazine]", "IC50": 78.3},
      {"smiles": "CCn1cc(C(F)(F)F)nc1-c1c(F)cc(Cc2cccn3nc(-c4c(OC)ncnc4C4CC4)nc23)cc1OC", "note": "[Example 26, 2-(4-cyclopropyl-6-methoxypyrimidin-5-yl)-8-(4-(1-ethyl-4-(trifluoromethyl)-1H-imidazol-2-yl)-3-fluoro-5-methoxybenzyl)-[1,2,4]triazolo[1,5-a]pyridine]", "IC50": 39.5},
      {"smiles": "COc1ncnc(C2CC2)c1-c1nc2c(Cc3ccc(-c4nc(C(F)(F)F)cn4C4CC4)cc3)cncn2n1", "note": "[Example 32, 8-(4-(1-cyclopropyl-4-(trifluoromethyl)-1H-imidazol-2-yl)benzyl)-2-(4-cyclopropyl-6-methoxypyrimidin-5-yl)-[1,2,4]triazolo[1,5-c]pyrimidine]", "IC50": 111},
      {"smiles": "COc1ncnc(C2CC2)c1-c1nc2c(Cc3ccc(-c4nc(C(F)(F)F)cn4C)cc3)nccn2n1", "note": "[Example 18, 2-(4-cyclopropyl-6-methoxypyrimidin-5-yl)-8-(4-(1-methyl-4-(trifluoromethyl)-1H-imidazol-2-yl)benzyl)-[1,2,4]triazolo[1,5-a]pyrazine]", "IC50": 11.2},
      {"smiles": "CCn1cc(C(F)(F)F)nc1-c1c(F)cc(Cc2nccn3nc(-c4c(OC)ncnc4C4CC4)nc23)cc1F", "note": "[Example 31, 2-(4-cyclopropyl-6-methoxypyrimidin-5-yl)-8-(4-(1-ethyl-4-(trifluoromethyl)-1H-imidazol-2-yl)-3,5-difluorobenzyl)-[1,2,4]triazolo[1,5-a]pyrazine]", "IC50": 57.5},
      {"smiles": "CCn1cc(C(F)(F)F)nc1-c1c(F)cc(Cc2cncn3nc(-c4c(OC)ncnc4C4CC4)nc23)cc1F", "note": "[Example 34, 2-(4-cyclopropyl-6-methoxypyrimidin-5-yl)-8-(4-(1-ethyl-4-(trifluoromethyl)-1H-imidazol-2-yl)-3,5-difluorobenzyl)-[1,2,4]triazolo[1,5-c]pyrimidine]", "IC50": 242},
      {"smiles": "COc1ncnc(C2CC2)c1-c1nc2cccc(Cc3ccc(-c4nc(C(F)(F)F)cn4C4CC4)cc3)n2n1", "note": "[Example 37, 5-(4-(1-cyclopropyl-4-(trifluoromethyl)-1H-imidazol-2-yl)benzyl)-2-(4-cyclopropyl-6-methoxypyrimidin-5-yl)-[1,2,4]triazolo[1,5-a]pyridine]", "IC50": 9.53},
      {"smiles": "CCn1cc(C(F)(F)F)nc1-c1c(F)cc(Cc2cncc3nc(-c4c(OC)ncnc4C4CC4)nn23)cc1F", "note": "[Example 45, 2-(4-cyclopropyl-6-methoxypyrimidin-5-yl)-5-(4-(1-ethyl-4-(trifluoromethyl)-1H-imidazol-2-yl)-3,5-difluorobenzyl)-[1,2,4]triazolo[1,5-a]pyrazine]", "IC50": 99.7},
      {"smiles": "COc1ncnc(C2CC2)c1-c1nc2c(Cc3ccc(-c4nc(C(F)(F)F)cn4C)c(F)c3)cncn2n1", "note": "[Example 33, 2-(4-cyclopropyl-6-methoxypyrimidin-5-yl)-8-(3-fluoro-4-(1-methyl-4-(trifluoromethyl)-1H-imidazol-2-yl)benzyl)-[1,2,4]triazolo[1,5-c]pyrimidine]", "IC50": 94.5},
      {"smiles": "COc1ncnc(C2CC2)c1-c1nc2c(Cc3ccc(-c4nc(C(F)(F)F)cn4C)c(F)c3)nccn2n1", "note": "[Example 30, 2-(4-cyclopropyl-6-methoxypyrimidin-5-yl)-8-(3-fluoro-4-(1-methyl-4-(trifluoromethyl)-1H-imidazol-2-yl)benzyl)-[1,2,4]triazolo[1,5-a]pyrazine]", "IC50": 41.4},
      {"smiles": "CCn1cc(C(F)(F)F)nc1-c1c(F)cc(Cc2nccc3nc(-c4c(OC)ncnc4C4CC4)nn23)cc1F", "note": "[Example 42, 2-(4-cyclopropyl-6-methoxypyrimidin-5-yl)-5-(4-(1-ethyl-4-(trifluoromethyl)-1H-imidazol-2-yl)-3,5-difluorobenzyl)-[1,2,4]triazolo[1,5-c]pyrimidine]", "IC50": 732},
      {"smiles": "COc1ncnc(C2CC2)c1-c1nc2c(Cc3ccc(-c4nc(C(F)(F)F)cn4C4CC4)cc3)cccn2n1", "note": "[Example 24, 8-(4-(1-cyclopropyl-4-(trifluoromethyl)-1H-imidazol-2-yl)benzyl)-2-(4-cyclopropyl-6-methoxypyrimidin-5-yl)-[1,2,4]triazolo[1,5-a]pyridine]", "IC50": 11.8},
      {"smiles": "CCn1cc(C(F)(F)F)nc1-c1c(F)cc(Cc2cccc3nc(-c4c(OC)ncnc4C4CC4)nn23)cc1OC", "note": "[Example 39, 2-(4-cyclopropyl-6-methoxypyrimidin-5-yl)-5-(4-(1-ethyl-4-(trifluoromethyl)-1H-imidazol-2-yl)-3-fluoro-5-methoxybenzyl)-[1,2,4]triazolo[1,5-a]pyridine]", "IC50": 18.8},
      {"smiles": "COc1ncnc(C2CC2)c1-c1nc2cncc(Cc3ccc(-c4nc(C(F)(F)F)cn4C4CC4)cc3)n2n1", "note": "[Example 43, 5-(4-(1-cyclopropyl-4-(trifluoromethyl)-1H-imidazol-2-yl)benzyl)-2-(4-cyclopropyl-6-methoxypyrimidin-5-yl)-[1,2,4]triazolo[1,5-a]pyrazine]", "IC50": 38.9},
      {"smiles": "COc1ncnc(C2CC2)c1-c1nc2c(Cc3ccc(-c4nc(C(F)(F)F)cn4C4CC4)cc3)nccn2n1", "note": "[Example 29, 8-(4-(1-cyclopropyl-4-(trifluoromethyl)-1H-imidazol-2-yl)benzyl)-2-(4-cyclopropyl-6-methoxypyrimidin-5-yl)-[1,2,4]triazolo[1,5-a]pyrazine]", "IC50": 34.6},
      {"smiles": "COc1ncnc(C2CC2)c1-c1nc2c(Cc3ccc(-c4nc(C(F)(F)F)cn4C)c(F)c3)cccn2n1", "note": "[Example 25, 2-(4-cyclopropyl-6-methoxypyrimidin-5-yl)-8-(3-fluoro-4-(1-methyl-4-(trifluoromethyl)-1H-imidazol-2-yl)benzyl)-[1,2,4]triazolo[1,5-a]pyridine]", "IC50": 11.6}
    ]}
  ]
}
